In ChEMBL document CHEMBL5674860, “Optimized Dual-Glo Assay to identify co-culture-induced drug vulnerabilities in 3D CRC models” (2024):

Experiments:
Assay type in all cases: functional, Homo sapiens
Parameters in all cases: dose or concentration left out as unconfirmed
[1] = system: Colon cancer organoid; experiment: Optimized Dual-Glo assay to identify co-culture induced drug vulnerabilities using donated chemical probes and chemogenomics kinase set in O06 CRC organoid and F06 CAF mono and co-culture. […] Cell viability is reported both mono and co-culture models.
[2] = system: Colon cancer organoid; experiment: Optimized Dual-Glo assay to identify co-culture induced drug vulnerabilities using donated chemical probes and chemogenomics kinase set in O14 CRC organoid and F14 CAF mono and co-culture. […] Cell viability is reported both mono and co-culture models.
[3] = system: Colon cancer organoid; experiment: Optimized Dual-Glo assay to identify co-culture induced drug vulnerabilities using donated chemical probes and chemogenomics kinase set in O20 CRC organoid and F20 CAF mono and co-culture. […] Cell viability is reported both mono and co-culture models.
[4] = Culture type Co-Culture, Transduced with Lucferase2-P2A-EGFP lentivirus
[5] = Culture type Co-Culture, Transduced with Renilla-dsRed lentivirus
[6] = Culture type Mono-Culture, Transduced with Lucferase2-P2A-EGFP lentivirus
[7] = Culture type Mono-Culture, Transduced with Renilla-dsRed lentivirus

`NS(=O)(=O)c1cc(NC(=O)C2(c3ccccc3Cl)CC2)ccc1Oc1cccc(Cl)c1` [BAY-207] was tested, and the “Cell Viability” value [1, 4] was 80.0716%, the “Cell Viability” value [1, 5] was 155.512% and the “Cell Viability” value [1, 6] was 77.1877%. The “Cell Viability” value [1, 7] was 150.163%, the “Cell Viability” value [2, 4] was 108.195% and the “Cell Viability” value [2, 5] was 102.868%. For the same compound, the “Cell Viability” value [2, 6] was 157.597%, the “Cell Viability” value [2, 7] was 122.925% and the “Cell Viability” value [3, 4] was 177.814%. For the same compound, the “Cell Viability” value [3, 5] was 111.752%, the “Cell Viability” value [3, 6] was 143.896% and the “Cell Viability” value [3, 7] was 130.032%.
`CC[C@H](CC(=O)O)n1c(=O)c2ncccc2n(Cc2cn(C)c3cc(C)cc(C)c23)c1=O` [BI-1942] was tested, and the “Cell Viability” value [1, 4] was 119.907%, the “Cell Viability” value [1, 5] was 136.619% and the “Cell Viability” value [1, 6] was 121.189%. For the same compound, the “Cell Viability” value [1, 7] was 103.918%, the “Cell Viability” value [2, 4] was 138.147% and the “Cell Viability” value [2, 5] was 85.0736%. For the same compound, the “Cell Viability” value [2, 6] was 117.29%, the “Cell Viability” value [2, 7] was 91.8874% and the “Cell Viability” value [3, 4] was 107.514%. For the same compound, the “Cell Viability” value [3, 5] was 100.799%, the “Cell Viability” value [3, 6] was 88.7956% and the “Cell Viability” value [3, 7] was 92.5825%.
With `CCC(=O)Nc1cccc(Oc2nc(Nc3ccc(N4CCN(C)CC4)cc3OC)ncc2Cl)c1` the “Cell Viability” value [1, 4] was 92.8013%, the “Cell Viability” value [1, 5] was 94.5997% and the “Cell Viability” value [1, 6] was 65.5336%. The “Cell Viability” value [1, 7] was 70.4946%, the “Cell Viability” value [2, 4] was 114.921% and the “Cell Viability” value [2, 5] was 101.654%. For the same compound, the “Cell Viability” value [2, 6] was 90.6079%, the “Cell Viability” value [2, 7] was 93.4216% and the “Cell Viability” value [3, 4] was 125.445%. For the same compound, the “Cell Viability” value [3, 5] was 105.023%, the “Cell Viability” value [3, 6] was 80.3355% and the “Cell Viability” value [3, 7] was 88.9581%.
`O=C(NCc1ncc(C(F)(F)F)cc1Cl)c1ccc2c(c1)C1(CCS(=O)(=O)CC1)[C@@H](C1CC1)N2S(=O)(=O)c1ccc(F)cc1` [BAY-786] was tested, and the “Cell Viability” value [1, 4] was 112.409%, the “Cell Viability” value [1, 5] was 138.316% and the “Cell Viability” value [1, 6] was 97.377%. The “Cell Viability” value [1, 7] was 88.5192%, the “Cell Viability” value [2, 4] was 75.9207% and the “Cell Viability” value [2, 5] was 99.8085%. The “Cell Viability” value [2, 6] was 94.4221%, the “Cell Viability” value [2, 7] was 104.267% and the “Cell Viability” value [3, 4] was 102.274%. The “Cell Viability” value [3, 5] was 106.984%, the “Cell Viability” value [3, 6] was 104.026% and the “Cell Viability” value [3, 7] was 100.592%.
For `CCN(CCO)CCCOc1ccc2c(Nc3cc(CC(=O)Nc4cccc(F)c4)[nH]n3)ncnc2c1` [DEFOSBARASERTIB], the “Cell Viability” value [1, 4] was 10.7234%, the “Cell Viability” value [1, 5] was 183.999% and the “Cell Viability” value [1, 6] was 3.3988%. The “Cell Viability” value [1, 7] was 94.753%, the “Cell Viability” value [2, 4] was 15.638% and the “Cell Viability” value [2, 5] was 174.95%. The “Cell Viability” value [2, 6] was 26.1499%, the “Cell Viability” value [2, 7] was 95.9515% and the “Cell Viability” value [3, 4] was 5.365%. For the same compound, the “Cell Viability” value [3, 5] was 225.013%, the “Cell Viability” value [3, 6] was 11.3206% and the “Cell Viability” value [3, 7] was 105.29%.
With `Cn1nc(C(F)(F)F)cc1-c1cnc(N2CCc3cc(S(=O)(=O)Nc4c(F)cc(Cl)cc4F)cc(N4CCCC4=O)c32)nc1` [TP-020] the “Cell Viability” value [1, 4] was 112.159%, the “Cell Viability” value [1, 5] was 131.656% and the “Cell Viability” value [1, 6] was 120.125%. The “Cell Viability” value [1, 7] was 102.548%, the “Cell Viability” value [2, 4] was 84.372% and the “Cell Viability” value [2, 5] was 107.562%. For the same compound, the “Cell Viability” value [2, 6] was 84.9301%, the “Cell Viability” value [2, 7] was 79.7114% and the “Cell Viability” value [3, 4] was 86.7802%. The “Cell Viability” value [3, 5] was 95.2287%, the “Cell Viability” value [3, 6] was 142.794% and the “Cell Viability” value [3, 7] was 105.743%.
In the case of `OCCn1cc(-c2ccc3c(c2)CCC3=NO)c(-c2ccncc2)n1`, the “Cell Viability” value [1, 4] is reported as 81.3359%, the “Cell Viability” value [1, 5] is reported as 109.303% and the “Cell Viability” value [1, 6] is reported as 157.495%. For the same compound, the “Cell Viability” value [1, 7] was 121.815%, the “Cell Viability” value [2, 4] was 155.629% and the “Cell Viability” value [2, 5] was 130.506%. For the same compound, the “Cell Viability” value [2, 6] was 186.115%, the “Cell Viability” value [2, 7] was 118.266% and the “Cell Viability” value [3, 4] was 201.802%. The “Cell Viability” value [3, 5] was 70.8995%, the “Cell Viability” value [3, 6] was 81.9137% and the “Cell Viability” value [3, 7] was 103.135%.
